Reference: patent US6544750B1, “Peptide analogs as selective inhibitors of thrombin activation of protease activated receptor 1” (Thromgen, Inc., priority 1999, dated 2003)
“Also recorded” adds a separate entry of the source. Ends that are not written are not given here.

Assays:
[1] = tested on: platelets (platelet-rich plasma); test: ADP-induced platelet aggregation in platelet-rich plasma; type: cell-based, human; conditions: 1 mM peptide, 4.5 μM ADP
Method: (§1) Fresh whole blood was collected and mixed with 0.013 M sodium citrate and platelet-rich plasma was prepared according to the method of Meloni et al., J. Biol. Chem. 266, 6786 (1991). Platelet-rich plasma with a normalized platelet count between 2-2.5×10^8 platelets/ml was added to a cuvette of an aggregometer (Chronlog Corp., Havertown, Pa.), standardized using the protocol of Meloni et al., supra. Peptides to be examined were added to the cuvette and the mixture stabilized for a few moments. Once the baseline was stabilized, γ-thrombin (10-70 NM) (Haematologic Technologies, Essex Junction, Vt.) was added to determine the minimal concentration of the agonist necessary to achieve full platelet aggregation. All investigations with peptides were performed using threshold concentrations of γ-thrombin. Aggregation was allowed to proceed for 5 minutes before stopping. When ADP-induced platelet aggregation studies were performed, 1-5 μM ADP (Sigrna) was added to the cuvette containing platelet-rich plasma.

[2] = tested on: platelets (platelet-rich plasma); test: γ-thrombin-induced platelet aggregation in platelet-rich plasma; type: cell-based, human; conditions: for peptide concentration at which γ-thrombin-induced platelet aggregation returned: 70 nM γ-thrombin; for Fold Increase in Aggregation Inhibition over RPPGF: γ-thrombin, compared to RPPGF at 0.2 mM
Method: as §1

[3] = tested on: Normal human lung fibroblasts (NHLF); test: α-thrombin-induced calcium mobilization in fibroblasts (fura-2); type: cell-based; conditions: for Ca2+ % Inhibition At 0.2 mM Peptide: thrombin-induced calcium mobilization in fibroblasts
Method: The second assay developed to assess peptides from the combinatorial libraries uses inhibition of α-thrombin-induced calcium mobilization in fibroblasts. Normal human lung fibroblasts (NHLF) were purchased from Clonetics, San Diego, Calif., an affiliate of Bio-Wittaker, Walkersville, Md. The cytoplasmic free Ca^2+ concentration ([Ca^2+]i) was measured using the fluorescent Ca^2+ indicator fura-2 (Molecular Probes, Inc., Eugene, Oreg.). Suspension of fibroblasts in Hepes-Tyrode's buffer were loaded with fura-2 by incubation at 37° C. with 2 μM fura-2/acetoxymethyl ester for 45 minutes according to the method of Rasmussen et al., J. Biol. Chem. 268, 14322 (1993). The labeled fibroblasts were separated from excess probe by washing by centrifugation at 1000 rpm (180×g). Aliquots of the labeled fibroblasts were transferred into a quartz cuvette with a magnetic stirrer, which was then placed in a thennostatically controlled chamber at 37° C. in a fluorescence spectrophotometer (Perkin-Elmer LS50B spectrofluorometer, Chicago, Ill.). Reagents, test peptide (SEQ ID NO: 5) (from 0.2 mM to effective lower concentration), and α-thrombin (2-4 nM), were sequentially added directly to the cuvette. The excitation wavelengths varied between 340 and 380 nm. Fluorescence was measured by recording emitted light at 510 nm as reported by Fisher et al., Mol Pharm. 35, 195 (1989). The minimum emission was determined on a solubilized fibroblast sample in the presence of 10 mM EDTA; maximum emission was determined on the same sample with 10 mM Ca^2+ added. The intrafibroblast free Ca^2+ concentration was calculated by the method of Grykiewicz et al., J. Biol. Chem. 260, 3440 (1985). The ratio of the fluorescence readings was calculated as R=340/380 nm and processed according to the equation [Ca^2+]i=KD((R−Rmim)/Rmax−R)) (Sf2/Sb2) to determine the intrafibroblast free Ca^2+ concentration. The KD for fura-2 was assumed to be 224 nM. Rmax and Rmin are the maximum and minimum fluorescence ratios measured at the end of the experiment, respectively; Sf2 and Sb2 are the fluorescence values at 380 nm in the absence and presence of saturating [Ca 2+], respectively. The reaction was monitored for 3-5 minutes. […] In FIG. 4, peptide RGDWC (SEQ ID NO: 20) at 0.2 mM inhibited 31% of 4 nM α-thrombin-induced Ca^2+ mobilization in fibroblasts.

[4] = target: T1, biotin-NAT12 (NATLDPRSFLLR, peptide from PAR1) (Homo sapiens, UniProt P25116); test: Biotin-NAT12 binding assay to peptides coupled to microtiter plates; conditions: peptides at 10 μg/ml coupled to microtiter plate
[5] = target: T1, biotin-NAT12 (NATLDPRSFLLR, peptide from PAR1); test: as above; conditions: relative to RPPGF given arbitrary binding level of 1
Method: A third assay was developed to ascertain the ability of biotin-NAT12 (NATLDPRSFLLR, SEQ ID NO: 41) to directly bind to peptides linked to microtiter plates. In this assay, peptide analogs were linked to microtiter plate cuvette wells by incubation of the peptide in 0.1 M Na2CO3, pH 9.6 buffer overnight at 4° C. After coupling the peptide to the cuvette well, the wells were dumped and each well was blocked with 1% bovine serun albumin in 0.01 M Na3PO4, 0.15 M NaCl, at pH 7.4. After incubation for 1 hour, the wells were dumped and washed three times with PBS-Tween. The wells were then incubated with biotin-NAT12. The amount of biotin-NAT12 bound was determined by adding streptavidin-peroxidase followed by adding turbo TMB (Pierce).
In decreasing order of binding level, these peptides include: RGKSC, RGKMC, RGKHC, RGKKC, RGKFC, RGKLC, RGKWC, and RGKVC (SEQ ID NOS 18, 7, 13, 14, 11, 1, 5 and 19, respectively). […] The best to least RGDO4C (SEQ ID NO: 44) peptides to bind biotin-NAT12 listed in Table VI are: RGDSC, RGDGC, RGDQC, RGDEC, RGDIC, RGDPC, RGDDC, and RGDYC (SEQ ID NOS 34, 28, 23, 22, 36, 38, 27 and 35, respectively). A solid phase peptide-peptide binding assay was used to determine biotin-NAT12 binding to library peptides. Test peptides in 0.1 M Na2CO3, pH 9.6 buffer, at 10 μg/well in 50 μl volume, were coupled to microtiter plate wells by overnight incubation at 4° C. After incubation, the contents of the wells were discarded and the wells were washed with a pH 7.4 buffer containing 0.01 M Na3PO4, 0.15 M NaCl, and 0.01% Tween 20. After blocking each well with 1% radioimmunoassay grade bovine serum albumin, the linked peptides were incubated with 100 μl of 100 μM biotin-NAT12 for 1 hour at 37° C. After incubation, the contents of the wells were dumped and the wells were washed three times (100 μl/well each time) with the buffer identified above. Each well then was incubated with 100 μl of 2 μg/ml solution of Immuno-Pure streptoavidin horeseradish peroxidase conjugate (Pierce Chemical Co., […], Ill.) for 1 hour at room temperature. The contents of the wells were discarded and the wells were washed three times as described above. The wells were then incubated with 100 μl of peroxidase-specific fast reacting substrate, turbo-3,3′,5,5′-tetramethylbenzidine (turbo-TMB, Pierce) for 5 minutes at room temperature and the developing color reaction was stopped by the addition of 100 μof 1 M phosphoric acid. The absorbance was measured at 450 nm using a Microplate Auto Reader EL311 (Bio-Tek, Winooski, Vt.).

[6] = RGKO4C sublibrary, platelet-rich plasma

Substance | Fold Increase in Aggregation Inhibition over RPPGF [2, 6] [fold] | Ca2+ % Inhibition At 0.2 mM Peptide ([3]; RGKO4C sublibrary) [%] | Level of Binding to Biotin-NAT12 ([5]; RGKO4C sublibrary) | Fold Increase in Aggregation Inhibition over RPPGF ([2]; RGDO4C sublibrary) [fold] | Level of Binding to Biotin-NAT12 ([5]; RGDO4C sublibrary) | Ca2+ % Inhibition At 0.2 mM Peptide ([3]; RGDO4C sublibrary) [%] | also measured
Arg-Gly-Lys-Trp-Cys (RGKWC-NH2) [peptide of the H-R-G-K-O4-C-NH2 sublibrary] | 1.3 | 62.5 | 1.3 |  |  |  | effect on ADP-induced platelet aggregation (in words) [1]: did not inhibit; peptide concentration at which γ-thrombin-induced platelet aggregation returned ([2]; platelet-rich plasma): 0.125 mM; peptide concentration at which α-thrombin overcame the inhibitory effect on Ca2+ mobilization ([3]; 2 nM α-thrombin, fibroblasts): 12.5 µM; peptide concentration at which α-thrombin-induced calcium mobilization is abolished ([3]; 2 nM α-thrombin, fibroblasts): 0.2 mM; peptide concentrations blocking α-thrombin-induced Ca2+ mobilization ([3]; 2 nM α-thrombin, fibroblasts): ≥ 50 µM; level of biotin-NAT12 binding compared with other peptides (in words) [4]: binds to a greater extent than peptide RGDWC; also recorded: greater than RPPGF; also recorded: less than that seen with the multiple branched peptide MAP4RPPGF
Arg-Pro-Pro-Gly-Phe (RPPGF) [bradykinin analog peptide used as control, reference compound] | 1.0 |  | 1.0 | 1 | 1 |  | effect on ADP-induced platelet aggregation (in words) [1]: did not inhibit; peptide concentration at which γ-thrombin-induced platelet aggregation returned ([2]; platelet-rich plasma): 0.25 mM
RGDRC: peptide of the H-R-G-D-O4-C-NH2 sublibrary (H-RGDRC-NH2) |  |  |  | 5 | 0.99 | 0 | 
RGDSC: peptide of the H-R-G-D-O4-C-NH2 sublibrary (H-RGDSC-NH2) |  |  |  | 5 | 1.44 | 0 | level of biotin-NAT12 binding compared with other peptides (in words) [4]: equivalent to the ability of RGKWC
RGDTC: peptide of the H-R-G-D-O4-C-NH2 sublibrary (H-RGDTC-NH2) |  |  |  | 7.5 | 0.746 | 0 | 
RGDVC: peptide of the H-R-G-D-O4-C-NH2 sublibrary (H-RGDVC-NH2) |  |  |  | 15 | 0.723 | 2.56 | 
RGDYC: peptide of the H-R-G-D-O4-C-NH2 sublibrary (H-RGDYC-NH2) |  |  |  | 5 | 1.05 | 16.4 | 
RGKIC: peptide of the H-R-G-K-O4-C-NH2 sublibrary (H-RGKIC-NH2) | 1.3 | 13.8 | 0.98 |  |  |  | 
RGKLC: peptide of the H-R-G-K-O4-C-NH2 sublibrary (H-RGKLC-NH2) | 7.7 | 8.33 | 1.5 |  |  |  | 
RGKMC: peptide of the H-R-G-K-O4-C-NH2 sublibrary (H-RGKMC-NH2) | 1.3 | 7.95 | 2.1 |  |  |  | 
RGKRC: peptide of the H-R-G-K-O4-C-NH2 sublibrary (H-RGKRC-NH2) | 2.5 | 35.7 | 0.38 |  |  |  | 
RGKTC: peptide of the H-R-G-K-O4-C-NH2 sublibrary (H-RGKTC-NH2) | 4.4 | 26.8 | 0.597 |  |  |  | 
RGKYC: peptide of the H-R-G-K-O4-C-NH2 sublibrary (H-RGKYC-NH2) | 1.3 | 0 | 0.94 |  |  |  | 
